DBAASP
In brackets after ≈: the same amount, converted by molar mass. Several values for one entry are separate records, joined by “and”; a condition that tells them apart may be missing. Identical values can stand only once. Each block holds one molecule with its values, some of them ahead of it.

How the values were obtained:
Assay in all cases: ≥ marks a high value that may be exact or a test limit, other limits are often not marked, values filed in µg/mL are converted to µM
[1] = system: Staphylococcus aureus ATCC 29213
[2] = system: Escherichia coli ATCC 25922
[3] = system: Pseudomonas aeruginosa ATCC 27853
[4] = system: Klebsiella pneumoniae ATCC 13883
[5] = system: Acinetobacter baumannii ATCC 19606
[6] = system: Staphylococcus aureus ATCC 25923
Escherichia coli UB1005 = system: Escherichia coli UB1005
[7] = system: Pseudomonas aeruginosa PAO1
Staphylococcus aureus = system: Staphylococcus aureus
Bacillus subtilis = system: Bacillus subtilis
Escherichia coli = system: Escherichia coli
Candida albicans = system: Candida albicans
[8] = system: Staphylococcus aureus ATCC 6538
[9] = system: Candida albicans ATCC 2002
[10] = system: Pseudomonas aeruginosa ATCC 9027
Pseudomonas aeruginosa = system: Pseudomonas aeruginosa

- MIC [2]: 12.5 µM and 30 µM
- MIC [6]: > 30 µM
- MIC [4]: 30 µM (≈ 56.3 µg/mL)
- MIC [5]: 13.8 µM and 22 µM
Compound: CC(C)C[C@H](NC(=O)[C@H](CCCN=C(N)N)NC(=O)[C@H](CCCN=C(N)N)NC(=O)[C@H](C)NC(=O)[C@H](Cc1c[nH]c2ccccc12)NC(=O)CNC(=O)[C@H](CCCN=C(N)N)NC(=O)[C@@H](N)CCCN=C(N)N)C(=O)N[C@@H](C)C(=O)N[C@@H](Cc1ccccc1)C(=O)N[C@@H](C)C(=O)N[C@@H](Cc1ccccc1)C(=O)NCC(=O)N[C@@H](CCCN=C(N)N)C(=O)N[C@@H](CCCN=C(N)N)C(N)=O [RRGWARRLAFAFGRR]

- MIC (Escherichia coli UB1005): 0.254 µM (≈ 0.6 µg/mL)
- MIC [7]: 27.1 µM (≈ 64 µg/mL)
- MIC [6]: 27.1 µM (≈ 64 µg/mL)
Compound: CC[C@H](C)[C@H](NC(=O)[C@H](CCCN=C(N)N)NC(=O)[C@H](CCCCN)NC(=O)[C@@H]1CCCN1C(=O)[C@@H]1CCCN1C(=O)[C@H](CCCN=C(N)N)NC(=O)[C@@H]1CCCN1C(=O)[C@H](CCCN=C(N)N)NC(=O)[C@@H]1CCCN1C(=O)[C@H](CC(C)C)NC(=O)[C@H](Cc1ccc(O)cc1)NC(=O)[C@@H]1CCCN1C(=O)[C@@H]1CCCN1C(=O)[C@H](CCCCN)NC(=O)[C@H](CC(=O)O)NC(=O)[C@@H](N)C(C)C)C(=O)N[C@@H](Cc1ccc(O)cc1)C(=O)N[C@@H](CC(N)=O)C(=O)N[C@@H](CCCN=C(N)N)C(N)=O [VDKPPYLPRPRPPKRIYNR]

- MIC (Escherichia coli UB1005): 1.04 µM (≈ 2.5 µg/mL)
- MIC [7]: 26.6 µM (≈ 64 µg/mL)
- MIC [6]: 13.3 µM (≈ 32 µg/mL)
Compound: CC(C)C[C@H](NC(=O)[C@H](Cc1ccc(O)cc1)NC(=O)[C@@H]1CCCN1C(=O)[C@@H]1CCCN1C(=O)[C@H](CCCCN)NC(=O)[C@H](CC(=O)O)NC(=O)[C@@H](N)C(C)C)C(=O)N1CCC[C@H]1C(=O)N[C@@H](CCCN=C(N)N)C(=O)N1CCC[C@H]1C(=O)N[C@@H](CCCN=C(N)N)C(=O)N1CCC[C@H]1C(=O)N1CCC[C@H]1C(=O)N[C@@H](CCCN=C(N)N)C(=O)N[C@@H](CCCN=C(N)N)C(=O)N[C@@H](CCCCN)C(=O)N[C@@H](Cc1ccc(O)cc1)C(=O)N[C@@H](CC(N)=O)C(=O)N[C@@H](CCCN=C(N)N)C(N)=O [VDKPPYLPRPRPPRRKYNR]

- MIC [9]: ≥ 79.1 µM
Compound: CC[C@H](C)[C@H](NC(=O)[C@@H](NC(=O)[C@@H](NC(=O)[C@@H]1CCCN1C(=O)[C@H](Cc1c[nH]c2ccccc12)NC(=O)[C@H](Cc1ccccc1)NC(=O)[C@H](CCCN=C(N)N)NC(=O)[C@H](CCCCN)NC(=O)[C@@H](NC(=O)[C@@H](N)CCCN=C(N)N)[C@@H](C)CC)C(C)C)C(C)C)C(=O)N[C@@H](CCCN=C(N)N)C(=O)N[C@H](C(=O)N[C@H](C(=O)N[C@H](C(=O)N[C@@H](C)C(=O)NCC(=O)O)C(C)C)C(C)C)[C@@H](C)O [RIKRFWPVVIRTVVAG]

- MIC [9]: ≥ 36.4 µM
Compound: CC[C@H](C)[C@H](NC(=O)[C@@H](NC(=O)[C@@H](NC(=O)[C@@H]1CCCN1C(=O)[C@H](Cc1c[nH]c2ccccc12)NC(=O)[C@H](Cc1ccccc1)NC(=O)[C@H](CCCN=C(N)N)NC(=O)[C@H](CCCCN)NC(=O)[C@@H](NC(=O)[C@@H](N)CCCN=C(N)N)[C@@H](C)CC)C(C)C)C(C)C)C(=O)N[C@@H](CCCN=C(N)N)C(=O)N[C@H](C(=O)N[C@H](C(=O)N[C@H](C(=O)N[C@@H](C)C(=O)NCC(=O)N[C@@H](Cc1ccc(O)cc1)C(=O)O)C(C)C)C(C)C)[C@@H](C)O [RIKRFWPVVIRTVVAGY]

More lines, now with the values behind:

Compound: CC[C@H](C)[C@@H]1NC(=O)[C@H](CO)NC(=O)[C@H](C(C)C)NC(=O)[C@H]([C@@H](C)O)NC(=O)[C@H](Cc2c[nH]c3ccccc23)NC(=O)[C@@H](NC(=O)CNC(=O)[C@H](CCCCN)NC(=O)[C@H](CCCCN)NC(=O)[C@H](C)NC(=O)[C@H](C)N)CSSC[C@@H](C(=O)N[C@@H](Cc2ccccc2)C(N)=O)NC(=O)[C@@H]2CCCN2C(=O)[C@H](CCCCN)NC(=O)[C@@H]2CCCN2C(=O)[C@@H]2CCCN2C1=O [AAKKGCWTVSIPPKPCF]
- MIC [1]: 16 µM (≈ 29.3 µg/mL)
- MIC [2]: 22.6 µM (≈ 41.4 µg/mL)
- MIC [3]: 32 µM (≈ 58.6 µg/mL)
- MIC [4]: 8 µM (≈ 14.6 µg/mL)
- MIC [5]: 16 µM (≈ 29.3 µg/mL)

Compound: CC[C@H](C)[C@H](NC(=O)[C@H](CO)NC(=O)CNC(=O)[C@H](CCCN=C(N)N)NC(=O)[C@@H](NC(=O)[C@H](CO)NC(=O)[C@@H](NC(=O)CNC(=O)[C@H](CO)NC(=O)[C@H](CC(C)C)NC(=O)[C@H](CC(C)C)NC(=O)CN)[C@@H](C)O)C(C)C)C(=O)O [GLLSGTSVRGSI]
- MIC (Staphylococcus aureus): 15.7 µM (≈ 18 µg/mL)
- MIC (Bacillus subtilis): 15.7 µM (≈ 18 µg/mL)
- MIC (Escherichia coli): 31.4 µM (≈ 36 µg/mL)
- MIC (Candida albicans): 7.85 µM (≈ 9 µg/mL)

Compound: CC(C)C[C@H](NC(=O)CNC(=O)[C@@H](NC(=O)[C@@H]1CCCN1C(=O)[C@H](CC(C)C)NC(=O)CNC(=O)[C@H](CC(N)=O)NC(=O)[C@H](CC(N)=O)NC(=O)[C@H](Cc1ccc(O)cc1)NC(=O)[C@@H](NC(=O)[C@H](CCCN=C(N)N)NC(=O)[C@H](CS)NC(=O)[C@H](CCCN=C(N)N)NC(=O)[C@H](Cc1cnc[nH]1)NC(=O)[C@@H](N)CCCCN)C(C)C)[C@@H](C)O)C(=O)N[C@@H](Cc1ccc(O)cc1)C(=O)N[C@@H](CCCN=C(N)N)C(=O)N[C@@H](Cc1c[nH]c2ccccc12)C(=O)N[C@@H](CS)C(N)=O [KHRCRVYNNGLPTGLYRWC]
- MIC [8]: 4.8 µM (≈ 11.2 µg/mL)

Compound: CC(C)C[C@H](NC(=O)[C@H](C)NC(=O)[C@H](CCCCN)NC(=O)[C@H](CCCCN)NC(=O)[C@H](CC(C)C)NC(=O)[C@H](C)NC(=O)[C@H](CCCCN)NC(=O)[C@H](CCCCN)NC(=O)[C@H](CC(C)C)NC(=O)[C@H](CCCCN)NC(=O)[C@H](CCCCN)NC(=O)[C@H](CC(C)C)NC(=O)[C@H](C)NC(=O)[C@H](CCCCN)NC(=O)[C@H](CCCCN)NC(=O)[C@H](CC(C)C)NC(=O)[C@H](C)NC(=O)[C@H](CCCCN)NC(=O)[C@H](CC(C)C)NC(=O)[C@H](C)NC(=O)[C@H](CC(C)C)NC(=O)[C@H](C)NC(=O)[C@@H](N)C(C)C)C(N)=O [VALALKALKKALKKLKKALKKAL]
- MIC [8]: > 80.3 µM
- MIC [10]: > 80.3 µM

Compound: CC[C@H](C)[C@H](NC(=O)[C@H](CC(C)C)NC(=O)[C@@H]1CCCN1C(=O)[C@H](CS)NC(=O)[C@H](CC(C)C)NC(=O)CNC(=O)[C@@H]1CCCN1C(=O)[C@H](CCCCN)NC(=O)[C@H](CCCCN)NC(=O)[C@@H]1CCCN1C(=O)[C@H](CCCN=C(N)N)NC(=O)[C@H](CC(=O)O)NC(=O)[C@@H](N)CCCCN)C(=O)N[C@@H](Cc1c[nH]c2ccccc12)C(=O)N[C@@H](Cc1c[nH]c2ccccc12)C(=O)N[C@@H](CC(C)C)C(=O)N[C@H](C(=O)N[C@H](C(=O)N[C@@H](CCCCN)C(=O)N[C@H](C(=O)NCC(N)=O)C(C)C)[C@@H](C)CC)[C@@H](C)CC [KDRPKKPGLCPLIWWLIIKVG]
- MIC (Staphylococcus aureus): 50.8 µM (≈ 125 µg/mL)
- MIC [2]: 6.35 µM (≈ 15.6 µg/mL)
- MIC [3]: 25.4 µM (≈ 62.5 µg/mL)
- MIC (Pseudomonas aeruginosa): 25.4 µM (≈ 62.5 µg/mL)
- MIC (Escherichia coli): 12.7 µM (≈ 31.2 µg/mL)
- MIC [6]: 50.8 µM (≈ 125 µg/mL)
- MIC (Candida albicans): 102 µM (≈ 250 µg/mL)

Compound: CC[C@H](C)[C@@H]1NC(=O)[C@H](CCCCN)NC(=O)[C@@H](NC(=O)[C@H](CCCCN)NC(=O)[C@H](CC(C)C)NC(=O)[C@H](CC(N)=O)NC(=O)[C@H](CC(=O)O)NC(=O)[C@H](CC(C)C)NC(=O)[C@H](CC(C)C)NC(=O)[C@@H](NC(=O)[C@@H](NC(=O)[C@H](C)NC(=O)[C@@H](NC(=O)[C@H](CC(N)=O)NC(=O)[C@H](CCCCN)NC(=O)[C@H](C)NC(=O)[C@H](C)NC(=O)[C@H](CC(N)=O)NC(=O)[C@H](CCCCN)NC(=O)[C@H](C)NC(=O)[C@@H](NC(=O)[C@H](CC(=O)O)NC(=O)[C@H](CCSC)NC(=O)[C@H](Cc2ccccc2)NC(=O)CN)[C@@H](C)O)C(C)C)C(C)C)[C@@H](C)O)CSSC[C@@H](C(=O)O)NC(=O)[C@H](C)NC(=O)[C@H](CCCCN)NC(=O)[C@H]([C@@H](C)O)NC1=O [GFMDTAKNAAKNVAVTLLDNLKCKITKAC]
- MIC (Staphylococcus aureus): 0.681 µM (≈ 2.1 µg/mL)
- MIC (Bacillus subtilis): 2.72 µM (≈ 8.39 µg/mL)
- MIC (Escherichia coli): 1.36 µM (≈ 4.2 µg/mL)
- MIC (Candida albicans): 0.341 µM (≈ 1.05 µg/mL)
